# ChEMBL document CHEMBL5034001 (J Med Chem, 2021)
# The source made the active and inactive calls. The calls are words filed in the database; no cut-off is given here.
# Legend:
# [1] = target: NUAK family SNF1-like kinase 2 (Homo sapiens) (UniProt Q9H093); experiment: Binding affinity to wild-type human partial length SNARK (P22 to A333 residues) expressed in mammalian expression system assessed as residual binding level at 100 nM by Kinomescan method relative to control
# [2] = target: T1, ALK tyrosine kinase receptor (Homo sapiens, UniProt Q9UM73); experiment: Binding affinity to wild-type human partial length ALK (I1088 to E1409 residues) expressed in mammalian expression system assessed as residual binding level at 100 nM by Kinomescan method relative to control
# Target sequence in this assay (Q9UM73 19-1620 limits assumed): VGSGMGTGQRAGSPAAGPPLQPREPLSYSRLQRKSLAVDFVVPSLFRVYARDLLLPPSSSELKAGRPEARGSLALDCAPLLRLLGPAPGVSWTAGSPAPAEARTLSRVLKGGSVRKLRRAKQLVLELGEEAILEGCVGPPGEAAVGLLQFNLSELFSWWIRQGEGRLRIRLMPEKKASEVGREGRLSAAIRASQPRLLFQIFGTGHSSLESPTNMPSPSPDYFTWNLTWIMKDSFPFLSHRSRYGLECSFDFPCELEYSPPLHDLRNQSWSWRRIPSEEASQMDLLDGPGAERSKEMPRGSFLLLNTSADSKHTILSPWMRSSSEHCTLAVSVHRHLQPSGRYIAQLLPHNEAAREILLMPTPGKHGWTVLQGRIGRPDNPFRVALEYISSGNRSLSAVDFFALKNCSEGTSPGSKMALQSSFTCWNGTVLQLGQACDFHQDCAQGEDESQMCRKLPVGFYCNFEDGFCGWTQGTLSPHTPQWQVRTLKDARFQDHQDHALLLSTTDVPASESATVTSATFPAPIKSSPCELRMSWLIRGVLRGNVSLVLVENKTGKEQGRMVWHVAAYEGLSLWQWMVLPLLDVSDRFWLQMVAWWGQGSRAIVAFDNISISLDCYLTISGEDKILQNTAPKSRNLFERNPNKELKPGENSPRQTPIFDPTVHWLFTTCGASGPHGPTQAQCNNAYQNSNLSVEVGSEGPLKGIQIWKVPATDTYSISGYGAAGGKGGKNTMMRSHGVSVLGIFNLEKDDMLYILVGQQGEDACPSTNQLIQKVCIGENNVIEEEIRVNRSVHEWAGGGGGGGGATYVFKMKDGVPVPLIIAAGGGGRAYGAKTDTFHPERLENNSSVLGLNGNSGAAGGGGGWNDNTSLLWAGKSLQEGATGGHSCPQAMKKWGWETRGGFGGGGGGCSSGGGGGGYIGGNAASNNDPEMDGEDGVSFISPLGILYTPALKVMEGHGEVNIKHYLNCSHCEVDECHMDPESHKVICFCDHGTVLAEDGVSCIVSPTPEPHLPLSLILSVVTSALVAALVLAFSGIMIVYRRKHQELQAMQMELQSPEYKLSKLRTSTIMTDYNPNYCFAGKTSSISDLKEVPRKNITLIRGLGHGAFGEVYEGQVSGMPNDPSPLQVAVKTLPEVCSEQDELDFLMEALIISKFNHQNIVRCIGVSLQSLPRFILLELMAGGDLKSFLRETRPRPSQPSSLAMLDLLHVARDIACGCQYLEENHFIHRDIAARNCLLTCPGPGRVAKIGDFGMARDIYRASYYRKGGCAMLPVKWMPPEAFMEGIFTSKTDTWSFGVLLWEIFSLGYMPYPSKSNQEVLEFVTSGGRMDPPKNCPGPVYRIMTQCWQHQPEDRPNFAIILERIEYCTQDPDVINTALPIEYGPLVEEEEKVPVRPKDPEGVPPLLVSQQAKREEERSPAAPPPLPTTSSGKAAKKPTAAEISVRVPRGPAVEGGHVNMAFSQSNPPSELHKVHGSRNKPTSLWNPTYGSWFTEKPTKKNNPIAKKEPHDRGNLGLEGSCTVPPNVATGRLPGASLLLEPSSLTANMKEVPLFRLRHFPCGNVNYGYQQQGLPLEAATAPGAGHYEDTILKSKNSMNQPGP
# [3] = system: Receptor-type tyrosine-protein kinase FLT3 (Homo sapiens), P36888 [UNDEFINED MUTATION]; experiment: Binding affinity to human partial length FLT3 ITD/D835V double mutant expressed in bacterial expression system assessed as residual binding level at 100 nM by Kinomescan method relative to control
# [4] = target: Ribosomal protein S6 kinase alpha-3 (Homo sapiens) (UniProt P51812); experiment: Binding affinity to wild-type human partial length N- terminal RSK2 kinase domain 1 (M1 to D394 residues) expressed in mammalian expression system assessed as residual binding level at 100 nM by Kinomescan method relative to control
# [5] = target: T1, ALK tyrosine kinase receptor; experiment: Induction of ALK degradation in human SR cells at 100 nM pretreated with proteosome inhibitor MG132 for 4 hrs followed by compound addition and measured after 16 hrs by Western blot analysis; type: cell-based
# Target sequence in this assay (Q9UM73 19-1620 limits assumed): as above
# MDA-MB-231 [6] = experiment: Induction of G1 cell cycle arrest in human MDA-MB-231 cells at 100 nM after 24 to 48 hrs; type: functional, cell-based; conditions: time 24-48 hrs
# A549 = experiment: Down regulation of RSK1 in human A549 cells at 1 to 1000 nM after 16 hrs by Western blot analysis; type: functional, cell-based; conditions: dose 1-1000 nM
# [7] = Oral bioavailability in […] at 10 mg/kg measured upto 24 hrs; type: ADME, organism-based; conditions: in vivo
# [8] = system: ALK tyrosine kinase receptor (Homo sapiens), Q9UM73 [G1202R]; experiment: Induction of […] G1202R mutant degradation in human […] at 100 nM by Western blot analysis; type: cell-based
# Sequence of ALK tyrosine kinase receptor (Homo sapiens), Q9UM73 [G1202R] (Q9UM73 whole entry G1202R, the tested form may be a part): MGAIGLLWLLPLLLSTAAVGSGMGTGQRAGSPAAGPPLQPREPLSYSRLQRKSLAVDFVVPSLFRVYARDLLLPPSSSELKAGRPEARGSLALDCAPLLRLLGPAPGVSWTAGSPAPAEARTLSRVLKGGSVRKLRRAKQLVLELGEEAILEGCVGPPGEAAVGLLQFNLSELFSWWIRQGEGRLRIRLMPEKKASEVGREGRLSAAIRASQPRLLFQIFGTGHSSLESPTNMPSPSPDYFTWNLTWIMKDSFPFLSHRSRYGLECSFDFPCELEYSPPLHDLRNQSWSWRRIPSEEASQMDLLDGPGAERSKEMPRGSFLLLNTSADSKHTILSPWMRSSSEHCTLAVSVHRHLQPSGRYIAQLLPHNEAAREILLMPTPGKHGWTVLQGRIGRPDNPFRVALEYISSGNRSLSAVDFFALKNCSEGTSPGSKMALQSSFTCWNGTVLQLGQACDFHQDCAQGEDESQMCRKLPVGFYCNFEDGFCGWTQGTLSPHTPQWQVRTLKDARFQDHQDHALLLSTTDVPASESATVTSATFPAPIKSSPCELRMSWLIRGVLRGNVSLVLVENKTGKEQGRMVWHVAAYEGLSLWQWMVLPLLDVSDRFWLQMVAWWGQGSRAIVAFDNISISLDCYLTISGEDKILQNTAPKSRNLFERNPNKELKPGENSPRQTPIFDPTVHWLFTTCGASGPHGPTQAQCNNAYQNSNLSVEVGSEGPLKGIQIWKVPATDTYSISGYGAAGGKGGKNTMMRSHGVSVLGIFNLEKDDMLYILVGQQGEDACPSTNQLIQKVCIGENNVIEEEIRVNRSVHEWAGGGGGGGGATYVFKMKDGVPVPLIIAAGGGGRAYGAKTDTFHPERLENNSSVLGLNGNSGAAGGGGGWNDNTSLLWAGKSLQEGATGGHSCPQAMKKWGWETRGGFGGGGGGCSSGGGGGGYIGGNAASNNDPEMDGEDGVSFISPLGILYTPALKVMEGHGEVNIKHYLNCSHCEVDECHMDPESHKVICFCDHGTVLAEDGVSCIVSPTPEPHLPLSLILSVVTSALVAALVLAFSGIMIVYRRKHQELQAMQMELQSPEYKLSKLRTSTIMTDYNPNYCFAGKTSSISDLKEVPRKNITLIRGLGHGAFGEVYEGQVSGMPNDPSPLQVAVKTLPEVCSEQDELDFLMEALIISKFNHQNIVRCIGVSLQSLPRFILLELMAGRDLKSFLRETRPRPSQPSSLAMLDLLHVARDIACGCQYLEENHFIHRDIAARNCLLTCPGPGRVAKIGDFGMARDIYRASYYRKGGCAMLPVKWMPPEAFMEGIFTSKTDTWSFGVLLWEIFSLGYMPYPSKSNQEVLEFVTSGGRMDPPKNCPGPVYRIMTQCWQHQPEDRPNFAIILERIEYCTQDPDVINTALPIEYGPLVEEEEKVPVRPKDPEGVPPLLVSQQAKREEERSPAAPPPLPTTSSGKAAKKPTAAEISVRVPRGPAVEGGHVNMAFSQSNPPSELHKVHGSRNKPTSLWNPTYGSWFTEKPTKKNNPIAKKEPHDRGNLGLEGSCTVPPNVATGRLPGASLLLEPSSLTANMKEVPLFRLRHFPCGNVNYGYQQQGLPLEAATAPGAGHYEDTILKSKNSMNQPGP
# [9] = system: Receptor-type tyrosine-protein kinase FLT3 (Homo sapiens), P36888 [D835Y]; experiment: Binding affinity to human partial length FLT3 D835Y mutant (Q580 to Y969 residues) expressed in bacterial expression system assessed as residual binding level at 100 nM by Kinomescan method relative to control
# [10] = target: T1, ALK tyrosine kinase receptor; experiment: Induction of ALK degradation in human SR cells at 100 nM after 8 to 24 hrs by Western blot analysis; type: cell-based; conditions: time 8-24 hrs
# Target sequence in this assay (Q9UM73 19-1620 limits assumed): as the sequence (Q9UM73 19-1620 limits assumed) above
# Calu-1 [11] = experiment: Inhibition of cell migration in human Calu-1 cells at 100 nM after 12 to 24 hrs by wound healing assay; type: functional, cell-based; conditions: time lower […], time upper 24.0 hrs
# [12] = target: Tyrosine-protein kinase Fer (Homo sapiens) (UniProt P16591); experiment: Binding affinity to wild-type human partial length FER (S542 to T822 residues) expressed in bacterial expression system assessed as residual binding level at 100 nM by Kinomescan method relative to control
# [13] = target: Activated CDC42 kinase 1 (Homo sapiens) (UniProt Q07912); experiment: Binding affinity to wild-type human partial length TNK2 (S159 to D474 residues) expressed in bacterial expression system assessed as residual binding level at 100 nM by Kinomescan method relative to control
# [14] = target: T1, ALK tyrosine kinase receptor; experiment: Binding affinity to ALK (unknown origin)
# Target sequence in this assay (Q9UM73 whole entry, the tested form may be a part): as the sequence (Q9UM73 whole entry G1202R, the tested form may be a part) above, with R1202G counted along it
# Calu-1 [15] = experiment: Down regulation of cyclin D1 protein expression in human Calu-1 cells at 1 to 500 nM after 48 hrs by Western blot analysis; type: functional, cell-based; conditions: dose 1-500 nM
# MDA-MB-231 [16] = experiment: Induction of apoptosis in human MDA-MB-231 cells at 100 nM after 72 hrs; type: functional, cell-based
# [17] = target: Non-receptor tyrosine-protein kinase TNK1 (Homo sapiens) (UniProt Q13470); experiment: Binding affinity to wild-type human full length TNK1 (M1 to P661 residues) expressed in bacterial expression system assessed as residual binding level at 100 nM by Kinomescan method relative to control
# Sequence of Non-receptor tyrosine-protein kinase TNK1 (Homo sapiens) (Q13470 whole entry, the tested form may be a part): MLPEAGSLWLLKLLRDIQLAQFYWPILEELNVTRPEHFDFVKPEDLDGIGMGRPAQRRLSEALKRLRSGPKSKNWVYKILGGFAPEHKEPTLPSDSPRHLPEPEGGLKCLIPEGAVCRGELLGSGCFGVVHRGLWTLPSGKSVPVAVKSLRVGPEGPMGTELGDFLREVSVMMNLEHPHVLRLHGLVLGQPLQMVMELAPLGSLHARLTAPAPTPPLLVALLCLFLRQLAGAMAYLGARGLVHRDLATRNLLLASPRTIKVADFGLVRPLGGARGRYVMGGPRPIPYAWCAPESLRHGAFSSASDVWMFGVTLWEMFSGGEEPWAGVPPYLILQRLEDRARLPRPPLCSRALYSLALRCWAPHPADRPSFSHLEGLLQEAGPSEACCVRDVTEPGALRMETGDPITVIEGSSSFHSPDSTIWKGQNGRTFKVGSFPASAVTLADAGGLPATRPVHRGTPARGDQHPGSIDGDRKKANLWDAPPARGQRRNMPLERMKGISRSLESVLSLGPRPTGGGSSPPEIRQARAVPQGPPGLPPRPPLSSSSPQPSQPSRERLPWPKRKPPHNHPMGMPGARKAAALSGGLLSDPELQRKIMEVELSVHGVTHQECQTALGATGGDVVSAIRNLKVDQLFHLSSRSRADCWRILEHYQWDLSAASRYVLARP
# [18] = Toxicity in NU/NU mouse at 100 mg/kg; type: organism-based; conditions: in vivo
# [19] = AUC in […] at 10 mg/kg, po or 2 mg/kg, iv measured upto 24 hrs; type: ADME, organism-based; parameters: dose 10 mg/kg, time <=24; conditions: in vivo
# [20] = target: Tyrosine-protein kinase receptor UFO (Homo sapiens) (UniProt P30530); experiment: Binding affinity to wild-type human partial length AXL (R497 to Y821 residues) expressed in bacterial expression system assessed as residual binding level at 100 nM by Kinomescan method relative to control
# Sequence of Tyrosine-protein kinase receptor UFO (Homo sapiens) (P30530 whole entry, the tested form may be a part): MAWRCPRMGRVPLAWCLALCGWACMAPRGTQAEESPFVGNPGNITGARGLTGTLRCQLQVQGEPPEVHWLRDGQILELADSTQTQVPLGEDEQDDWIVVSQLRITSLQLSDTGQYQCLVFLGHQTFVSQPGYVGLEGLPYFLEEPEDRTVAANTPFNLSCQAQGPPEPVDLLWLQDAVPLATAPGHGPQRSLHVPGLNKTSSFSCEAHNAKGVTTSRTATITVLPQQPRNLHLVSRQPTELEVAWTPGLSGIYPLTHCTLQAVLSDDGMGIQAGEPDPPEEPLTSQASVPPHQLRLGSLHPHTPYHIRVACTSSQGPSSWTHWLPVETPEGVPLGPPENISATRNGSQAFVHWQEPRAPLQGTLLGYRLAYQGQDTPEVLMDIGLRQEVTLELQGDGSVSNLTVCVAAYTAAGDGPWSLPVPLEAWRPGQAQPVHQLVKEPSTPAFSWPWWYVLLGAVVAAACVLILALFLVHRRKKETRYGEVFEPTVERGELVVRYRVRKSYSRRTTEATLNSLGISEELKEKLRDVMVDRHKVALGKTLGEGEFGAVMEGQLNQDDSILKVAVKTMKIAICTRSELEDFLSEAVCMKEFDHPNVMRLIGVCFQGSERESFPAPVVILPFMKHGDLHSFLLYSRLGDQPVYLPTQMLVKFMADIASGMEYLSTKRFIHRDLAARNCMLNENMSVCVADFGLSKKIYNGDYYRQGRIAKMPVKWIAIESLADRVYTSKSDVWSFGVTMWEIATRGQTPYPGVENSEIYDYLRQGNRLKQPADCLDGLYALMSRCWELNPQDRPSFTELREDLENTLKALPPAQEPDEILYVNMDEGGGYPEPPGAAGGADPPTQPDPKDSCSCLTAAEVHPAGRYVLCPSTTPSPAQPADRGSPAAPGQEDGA
# [21] = target: Focal adhesion kinase 1 (Homo sapiens) (UniProt Q05397); experiment: Binding affinity to wild-type human partial length FAK (D402 to R696 residues) expressed in bacterial expression system assessed as residual binding level at 100 nM by Kinomescan method relative to control
# [22] = target: Signal transducer and activator of transcription 3 (Homo sapiens) (UniProt P40763); experiment: Inhibition of STAT3 downstream signalling in human SR cells assessed as reduction in pSTAT3 level at 10 nM by Western blot analysis; type: cell-based
smiles,measurement,setting,value
COc1cc(N2CCC(N3CCN(C(=O)CNc4cccc5c4C(=O)N(C4CCC(=O)NC4=O)C5=O)CC3)CC2)ccc1Nc1ncc(Cl)c(Nc2ccccc2P(C)(C)=O)n1 (stereo not drawn),Activity,[1],8.3%
same,Activity,[2],5.3%
same,Activity,[3],1%
same,Activity,[4],2.1%
same,Activity,[5],inactive
same,Activity,MDA-MB-231 [6],Active
same,Activity,A549,Active
same,bioavailability,[7],18.4%
same,Activity,[8],Active
same,Activity,[9],8.2%
same,Activity,[10],Active
same,inhibition,Calu-1 [11],Active
same,Activity,[12],4.1%
same,Activity,[13],2%
same,IC50,[14],2.5 nM
same,Activity,Calu-1 [15],Active
same,Activity,MDA-MB-231 [16],inactive
same,Activity,[17],3.8%
same,Activity,[18],Non-Toxic
same,AUC at 24 h,[19],1560 ng·h/mL
same,Activity,[20],9.5%
same,Activity,[21],2.5%
same,inhibition,[22],Active
